From US11925621B2, “Medicinal preparation for external use” (Sumitomo Pharma Co., Ltd., priority 2018, dated 2024)

Assays:
[1] = system: SNL model rats; test: Analgesic effect in a fifth lumbar nerve ligation (SNL) model, von Frey test; assay type: in vivo, Wistar rats; details: for extension range of reaction thresholds ± standard error (50% paw withdrawal threshold, after minus before administration): about 10 mg formulation on footpad for 1 hour, evaluated another 1 hour after removal, n=9; for extension range of reaction thresholds compared with the vehicle group: about 10 mg formulation on footpad, versus vehicle (Control example 1)
Procedure: Test 2. […] A SNL model was prepared by a method of Kim and Chung (Pain 50, 355-363, 1992) with partial modification thereof. Specifically, male 5-week-old Wistar rats were anesthetized with pentobarbital and isoflurane inhalation, and under anesthesia, an unilateral fifth lumber nerve was exposed. Then, the fifth lumber nerve was ligated with a silk surgical suture to obtain a SNL model. Evaluation of the analgesic effect was conducted with the von Frey test. Specifically, an animal was poked with a von Frey hair on a footpad in a hind limb of an animal at the side of operation. Reaction thresholds (50% paw withdrawal thresholds) to mechanical stimulation were calculated with a formula according to a method of Chaplan (Journal of Neuroscience Methods 53, 55-63, 1994). […] Reaction thresholds were measured on one and two days before the evaluation of test compounds, and an average of the measured values was determined as the reaction threshold before administration of test compounds. […] One day after the division into groups, test compounds were administered. […] Administration of a test compound was carried out by application of about 10 mg of each formulation on a medical adhesive film, and attachment of the film to a footpad of a SNL rat at the side of operation under anesthesia with isoflurane inhalation. One hour after the application, the film was removed, and another one hour after, reaction thresholds after administration of the test compound were evaluated. After the evaluation, blood was immediately collected from a cervical vein, and the concentration of the test compound in plasma was measured. The efficacy of the analgesic effect of a test compound is shown as an extension range of reaction thresholds±standard error (g) by the following formula: (Reaction threshold after administration of a test compound)−(Reaction threshold before administration of a test compound).

[2] = system: ECG (electrocardiogram) parameters of guinea pigs; test: Safety pharmacology study of the cardiovascular system: ECG parameters under anesthesia; assay type: in vivo; details: for effect on the cardiovascular system / ECG parameters: guinea pigs under anesthesia, continuous intravenous administration
Procedure: Test 3. […] Evaluation of ECG of guinea pigs was conducted under anesthesia with intra-abdominal administration of a mixed solution of urethane and α-chloralose. Guinea pigs under anesthesia were retained in a supine position, and a right cervical vein was exposed to […] cannula. […] QRS interval and QTc interval are shown as rates of change (%) by similar equations.

[3] = Concentration of the test compound in plasma after evaluation in SNL rats; assay type: in vivo; details: Wistar, rat, topical about 10 mg formulation, blood collected immediately after evaluation (2 hours after application)
Procedure: One day after the division into groups, test compounds were administered. […] Administration of a test compound was carried out by application of about 10 mg of each formulation on a medical adhesive film, and attachment of the film to a footpad of a SNL rat at the side of operation under anesthesia with isoflurane inhalation. One hour after the application, the film was removed, and another one hour after, reaction thresholds after administration of the test compound were evaluated. After the evaluation, blood was immediately collected from a cervical vein, and the concentration of the test compound in plasma was measured.

[4] = Concentration in plasma during continuous intravenous administration in guinea pigs; assay type: in vivo; details: dose of 30 mg/kg continuous intravenous for 30 minutes
Procedure: Evaluation of ECG of guinea pigs was conducted under anesthesia with intra-abdominal administration of a mixed solution of urethane and α-chloralose. Guinea pigs under anesthesia were retained in a supine position, and a right cervical vein was exposed to […] cannula. […] QRS interval and QTc interval are shown as rates of change (%) by similar equations.

[5] = 15 mg/kg continuous intravenous for 30 minutes, at 30 minutes after administration
[6] = 30 mg/kg continuous intravenous for 30 minutes, at 30 minutes after administration

Row | concentration at 2 h [3] | maximum concentration in plasma [4] | Structure (SMILES) | extension range of reaction thresholds ± standard error (50% paw withdrawal threshold, after minus before administration) [1] | extension range of reaction thresholds compared with the vehicle group [1] | PR interval rate of change (prolonged) [2, 5] | QRS interval rate of change (prolonged) [2, 5] | effect on the cardiovascular system / ECG parameters [2] | difference between extension ranges of reaction thresholds of Compound A and lidocaine groups ([1]; Example 1 ointment versus 5% lidocaine ointment) | rates of change of each ECG parameter compared with the vehicle group ([2]; 30 mg/kg continuous intravenous for 30 minutes) | PR interval rate of change (prolonged) [2, 6] | QRS interval rate of change (prolonged) [2, 6] | QTc interval rate of change (prolonged) [2, 6] | plasma concentration without effect on the cardiovascular system relative to that at which the analgesic effect appeared ([2]; guinea pig maximum plasma concentration at 30 mg/kg versus SNL rat plasma concentration)
1 | – | – | CCN(CC)CC(=O)Nc1c(C)cccc1C [lidocaine, reference compound] | 4.1 ± 0.62 g | statistically significantly increased | 35.1% | 44.5% | observed at a dose of 15 mg/kg | – | – | – | – | – | –
2 | 25.2 ng/mL | 16.9 µg/mL | CCn1c(CN[C@@H](C)C(N)=O)nc2ccc(Oc3ccc(C)cc3)cc21 [Compound A, N^2-{[1-ethyl-6-(4-methylphenoxy)-1H-benzimidazol-2-yl]methyl}-L-alaninamide] | 2.2 ± 0.56 g | statistically significantly increased | – | – | not observed until the dose rose to 30 mg/kg | no statistically significant difference | no statistically significant difference | 22.3% | 10.3% | 9.0% | about 670 times
